According to patent publication US20240050370A1, “TRIPLE STABILIZER SYSTEM” (Bayer Aktiengesellschaft, priority 2022, published 2024):

Experiment: Viscosity by rotational viscometry (MCR 302e, concentric cylinder)
Format: physicochemical
Details: 2 wt % HPC, 0.2 wt % anionic surfactant, PVPK12 0 to 16 wt %
Description: Viscosity was measured with rotational viscometry with a modular compact rheometer (MCR) 302e (Anton Paar). A concentric cylinder geometry was used. Shear rate was varied logarithmic from 0.1 1/s to 1000 1/s. 6 measurement points per decade were used. The measurement time was varied from 10 s for a shear rate of 0.1 1/s and is for 1000 1/s. Shear rate vs. Shear stress was plotted. The slope described the viscosity. The shear rate independent viscosity was evaluated, and the middle value was used.
Viscosity was measured with rotational viscometry with a modular compact rheometer (MCR) 302e (Anton Paar). A concentric cylinder geometry was used. Shear rate was varied logarithmic from 0.1 1/s to 1000 1/s. 6 measurement points per decade were used. The measurement time was varied form 10 s for a shear rate of 0.1 1/s and is for 1000 1/s.

C[C@H](CCC(=O)[O-])[C@H]1CC[C@H]2[C@@H]3CC[C@@H]4C[C@H](O)CC[C@]4(C)[C@H]3C[C@H](O)[C@]12C.[Na+] [Na-Deoxycholate]
Impact of anionic surfactant on viscosity reduction induced by PVPK12 addition (FIG. 5): do not show a reduction of viscosity

CCCCCCCCCCCCOS(=O)(=O)[O-].[Na+] [SDS, sodium dodecyl sulfate]
Impact of anionic surfactant on viscosity reduction induced by PVPK12 addition (FIG. 5): strongest impact
